According to patent publication US6218369A, “Pharmaceutical compositions containing flavanolignanes and methods for using same as an antiproliferative” (Indena S.p.A., priority 1995, dated 2001):
pIC50, pKd: −log10 of the molar value. Where two headings read alike, the source gives them in different places.

What was measured:
A2780 WT cell line = assay: synergistic antiproliferative effect of the CIS-silybin combination (isobolic method); type: cell-based, human
Procedure: (§1) The determination of the binding to the estrogen receptor has been carried out on cells of ovary tumor or of other organ tumors, cultured in monolayers using as medium the Dulbecco Modified Medium added with calf serum and with 200 unities/ml of penicillin. The cells used for the tests have been trypsinated every week and placed on a plate at a […] density and incubated at 37° C. under air atmosphere containing 5% CO2 and humidity. […] After 24 hours the medium is substituted with fresh medium and the flavanolignanes dissolved in absolute ethanol are added. The controls are treated in the same experimental conditions only with the vehicle in the absence of the active ingredient. The treatment described above is repeated at 24 hour intervals during the 72 hours of the test time. The inhibition of the cell proliferation is evaluated by direct count of the cells, comparing the growth of the controls versus that of the treated samples.
(§2) The inhibition on cell proliferation is evaluated by direct count of the cells, comparing the growth of controls versus that of the treated ones.
As reported in Table III, when silybin is used in combination with CIS, a synergistic inhibition effect on the growth is observed, compared with corresponding doses of the medicaments used alone.
(§3) In order to verify wether such an effect of a combination of silybin with adriamycin or cisplatin is due to a synergistic or an additive action, the data have been analyzed with the isobolic method by Berenbau (Adv. Cancer Res., 25, 269, 1981).

[1] = molecular target: estrogen receptors of type II; settings: read-out: dissociation affinity constant KD; cited from earlier work
A2780 WT cells [2] = assay: antiproliferative effect on A2780 WT ovary carcinoma cells (direct cell count); type: cell-based, human; settings: for pIC50: Homo sapiens
Procedure: as §1, with “The controls are treated in the same experimental conditions only with the vehicle in the absence of the active ingredient.” left out, “samples. The inhibition on cell proliferation is evaluated by direct count of the cells, comparing the growth of controls versus that of the treated ones. […] The results are the average of two experiments carried out in triplicated.” for “samples.”

[3] = system: tumors implanted in the nude athymic mouse; assay: inhibition of growth of tumors implanted in nude athymic mouse; settings: test not specified (follows in vivo mouse and man results)
Procedure: Moreover, the above flavanolignanes were evidenced to inhibit in vivo the cell proliferation, by measuring the size of tumors implanted in the nude athymic mouse according to the conventional conditions of literature. The treatment of the animals at doses from 1 to 100 mg/Kg evidenced a marked regression of the studied tumors until their disappearance in a high percentage of individuals.
In the in vitro tests flavanolignanes have been used as such, whereas in in vivo tests the complexes thereof with phospholipids, described in EP-A-0209038, have been used.

A2780 CIS cells = assay: antiproliferative effect on A2780 CIS (CIS resistant) ovary carcinoma cells; type: cell-based; settings: Homo sapiens, A2780cis, ovary ca CIS resistant, exposure 72 h
Procedure: as §1, §2

OVCA-433 cells = assay: antiproliferative effect on OVCA-433 ovary carcinoma cells; type: cell-based; settings: Homo sapiens, OVCA433; OVCA-433, ovary ca, exposure 72 h
Procedure: as §1, §2

MCF-7 ADRr cells = assay: antiproliferative effect on MCF-7 ADRr (ADR resistant) breast carcinoma cells; type: cell-based; settings: Homo sapiens, MCF7, breast ca ADR resistant, exposure 72 h
Procedure: as §1, §2

[4] = system: different stabilized cell lines, including MCF-7 ADRr, A2780 CIS; assay: antiproliferative effect on different stabilized cell lines (overall statement); type: cell-based, human
From the text: In order to verify the antiproliferative effect of flavanolignanes, the growth curves of different stabilized cell lines deriving from various human tumors have been examined in the presence of the compounds and their capability to interact with the Type II EBS in ovary carcinoma samples has been evaluated.
as §1, §2

A2780 WT cells [5] = assay: cytofluorimetric analysis of cell cycle phase distribution; type: cell-based, human
Procedure: *A2780 WT cells were cultured for 2 days with or without 10 μM silybin.

MCF-7 ADRr line = assay: synergistic antiproliferative effect of a combination of ADR and silybin (isobolic method); type: cell-based, human
Procedure: as §1, with “The controls are treated in the same experimental conditions only with the vehicle in the absence of the active ingredient.” left out
as §2, §3

[6] = system: human tumor primary cultures; assay: antiproliferative activity on human tumor primary cultures; type: cell-based
From the text: A plurality of the tested flavanolignanes have a similar behaviour. In Table V, the data relating to silybin, silidianin, silymarin and dehydrosilybin are reported. The diastereomeric forms of silybin and isosilybin are as well active in these tests.

human leukemia cells = settings: cited from earlier work
other cell lines = settings: cited from earlier work
[7] = isoeffective with CIS 0.1 μg/ml + silybin 0.1 μM (67% control)
[8] = isoeffective with CIS 0.1 μg/ml + silybin 1 μM (54% control)
[9] = isoeffective with CIS 0.25 μg/ml + silybin 0.1 μM (58% control)
[10] = isoeffective with CIS 0.25 μg/ml + silybin 1 μM (35% control)
[11] = isoeffective with CIS 0.5 μg/ml + silybin 0.1 μM (37% control)
[12] = isoeffective with CIS 0.5 μg/ml + silybin 1 μM (25% control)
[13] = isoeffective with CIS 1 μg/ml + silybin 0.1 μM (18% control)
[14] = isoeffective with CIS 1 μg/ml + silybin 1 μM (12% control)
[15] = A2780 WT, ovary ca, exposure 72 h, read-out: IC50
[16] = isoeffective with ADR 0.1 μg/ml + silybin 0.1 μM (80% of control)
[17] = isoeffective with ADR 0.5 μg/ml + silybin 0.1 μM (76% of control)
[18] = isoeffective with ADR 1 μg/ml + silybin 0.1 μM (69% of control)
[19] = isoeffective with ADR 2.5 μg/ml + silybin 0.1 μM (62% of control)
[20] = isoeffective with ADR 5 μg/ml + silybin 0.1 μM (47% of control)
[21] = isoeffective with ADR 10 μg/ml + silybin 0.1 μM (39% of control)

Question: For `N.N.[Cl][Pt][Cl]` [CIS, cisplatin, reference compound], which “CIS (isoeffective dose alone)” value (A2780 WT cell line; [7]) is on record?
Answer: 0.23 µg/mL

Question: What about the “CIS (isoeffective dose alone)” value (A2780 WT cell line; [8]) of the same compound?
Answer: 0.34 µg/mL

Question: What about the “CIS (isoeffective dose alone)” value (A2780 WT cell line; [9]) of the same compound?
Answer: 0.31 µg/mL

Question: What about the “CIS (isoeffective dose alone)” value (A2780 WT cell line; [10]) of the same compound?
Answer: 0.56 µg/mL

Question: And the “CIS (isoeffective dose alone)” value (A2780 WT cell line; [11])?
Answer: 0.54 µg/mL

Question: And the “CIS (isoeffective dose alone)” value (A2780 WT cell line; [12])?
Answer: 0.82 µg/mL

Question: And the “CIS (isoeffective dose alone)” value (A2780 WT cell line; [13])?
Answer: > 1 µg/mL

Question: What about the “CIS (isoeffective dose alone)” value (A2780 WT cell line; [14]) of the same compound?
Answer: > 1 µg/mL

Question: With `C[C@]12CC[C@@H]3c4ccc(O)cc4CC[C@H]3[C@@H]1CC[C@@H]2O` [estradiol] as the compound, how does the pKd [1] read?
Answer: 7.70 to 8.00

Question: With `COc1cc(C2Oc3ccc(C4Oc5cc(O)cc(O)c5C(=O)C4O)cc3OC2CO)ccc1O` (stereo not shown) [isosilybin] as the compound, how does the “activity in these tests” value (A2780 WT cells [2]; diastereomeric forms, growth tests of Table V) read?
Answer: active

Question: With `COc1cc(C2C3C=C([C@H]4Oc5cc(O)cc(O)c5C(=O)[C@@H]4O)C4C2COC4(O)C3=O)ccc1O` (stereo partly shown) [silidianin] as the compound, how does the pIC50 (A2780 WT cells [2]; [15]) read?
Answer: 4.92

Question: What about the “activity” value [3] of the same compound?
Answer: particularly marked activity

Question: Which results are given for `COc1cc(C2Oc3cc(C4Oc5cc(O)cc(O)c5C(=O)C4O)ccc3OC2CO)ccc1O` (stereo not shown) [silybin]?
Answer: pIC50 (A2780 WT cells [2]; [15]): 4.92; pIC50 (A2780 CIS cells): 4.85; pIC50 (OVCA-433 cells): 5.32; pIC50 (MCF-7 ADRr cells): 4.62; antiproliferative effect ([4]; 0.01 μM to 20 μM, FIG. 1 and Table I): dose-dependent antiproliferative effect; pIC50 ([4]; Homo sapiens, different cell lines, silybin 0.01 μM to 20 μM, read-out: IC50 (range over cell lines)): 4.62 to 5.32; cells in phase G2/M (A2780 WT cells [5]; 10 μM silybin, 2 days, control 10.3): 8.6%; cells in phase S (A2780 WT cells [5]; 10 μM silybin, 2 days, control 31): 20.9%; cells in phase G0/G1 (A2780 WT cells [5]; 10 μM silybin, 2 days, control 58.7): 70.5%; effect on percentage of phase G0/G1 cells (A2780 WT cells [5]; A2780 WT): mild increase; effect on percentage of phase S cells (A2780 WT cells [5]; A2780 WT): decrease in the percentage of phase S cells; Silybin (isoeffective dose alone) (A2780 WT cell line; [7]): 2.9 µM; Silybin (isoeffective dose alone) (A2780 WT cell line; [8]): 8.2 µM; Silybin (isoeffective dose alone) (A2780 WT cell line; [9]): 6.4 µM; Silybin (isoeffective dose alone) (A2780 WT cell line; [10]): > 50 µM; Silybin (isoeffective dose alone) (A2780 WT cell line; [11]): > 50 µM; Silybin (isoeffective dose alone) (A2780 WT cell line; [12]): > 50 µM; Silybin (isoeffective dose alone) (A2780 WT cell line; [13]): > 50 µM; Silybin (isoeffective dose alone) (A2780 WT cell line; [14]): > 50 µM; Silybin (isoeffective dose alone) (MCF-7 ADRr line; [16]): 0.1 µM; Silybin (isoeffective dose alone) (MCF-7 ADRr line; [17]): 0.36 µM; Silybin (isoeffective dose alone) (MCF-7 ADRr line; [18]): 2.2 µM; Silybin (isoeffective dose alone) (MCF-7 ADRr line; [19]): 7 µM; Silybin (isoeffective dose alone) (MCF-7 ADRr line; [20]): 35 µM; Silybin (isoeffective dose alone) (MCF-7 ADRr line; [21]): > 50 µM; antiproliferative activity [6]: antiproliferative activity

Question: With `O=c1c(O)c(-c2ccc(O)c(O)c2)oc2cc(O)cc(O)c12` [quercetin] as the compound, how does the “inhibiting activity on proliferation” value (human leukemia cells) read?
Answer: some inhibiting activity

Question: What about the “activity with the usual chemotherapeuticals” value (other cell lines) of the same compound?
Answer: synergistic activity

Question: And the “inhibiting activity on proliferation” value (other cell lines; other cell lines)?
Answer: some inhibiting activity

Question: With `COc1cc(C2Oc3cc(-c4oc5cc(O)cc(O)c5c(=O)c4O)ccc3OC2CO)ccc1O` (stereo not shown) [dehydrosilybin] as the compound, how does the pIC50 (A2780 WT cells [2]; A2780, 72 h) read?
Answer: 5.54

Question: What about the “activity” value [3] of the same compound?
Answer: particularly marked activity

Question: What does the source list for `COc1cccc2c1C(=O)c1c(O)c3c(c(O)c1C2=O)C[C@@](O)(C(=O)CO)C[C@@H]3O[C@H]1C[C@H](N)[C@H](O)[C@H](C)O1` [ADR, adriamycin, reference compound]?
Answer: ADR (isoeffective dose alone) (MCF-7 ADRr line; [16]): 0.6 μM/ml; ADR (isoeffective dose alone) (MCF-7 ADRr line; [17]): 0.9 μM/ml; ADR (isoeffective dose alone) (MCF-7 ADRr line; [18]): 2.5 μM/ml; ADR (isoeffective dose alone) (MCF-7 ADRr line; [19]): 5.4 μM/ml; ADR (isoeffective dose alone) (MCF-7 ADRr line; [20]): > 10 μM/ml; ADR (isoeffective dose alone) (MCF-7 ADRr line; [21]): > 10 μM/ml
